# Columns and labels:
# [1] = system: Alopecurus myosuroides (ALOMY); assay: Post-emergence biological efficacy (percentage damage); format: in vivo; conditions: Alopecurus myosuroides, 312 h, dose 1,000 g/ha, evaluated after 13 days, 100=total damage, 0=no damage
# Outline: (§1)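 Pot-grown plants are cultivated 8 days under glasshouse conditions (24/16 °C, 14 h light, 65% humidity), sprayed at a dose of 250 or 1000 g/ha, kept under the same conditions with twice-daily watering, and rated for damage after 13 days.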
# [2] = system: Ipomea hederaceae (IPOHE); assay: as above; format: in vivo; conditions: Ipomoea hederacea, 312 h, dose 1,000 g/ha, evaluated after 13 days, 100=total damage, 0=no damage
# Outline: as §1
# [3] = system: Echinochloa crus-galli (ECHCG); assay: as above; format: in vivo; conditions: Echinochloa crus-galli, 312 h, dose 1,000 g/ha, evaluated after 13 days, 100=total damage, 0=no damage
# Outline: as §1
# Setaria faberi (SETFA) [4] = assay: as above; format: in vivo; conditions: Setaria faberi, 312 h, dose 1,000 g/ha, evaluated after 13 days, 100=total damage, 0=no damage
# Outline: as §1
# Solanum nigrum (SOLNI) [5] = assay: as above; format: in vivo; conditions: Solanum nigrum, 312 h, dose 1,000 g/ha, evaluated after 13 days, 100=total damage, 0=no damage
# Outline: as §1
# [6] = system: Amaranthus retoflexus (AMARE); assay: as above; format: in vivo; conditions: Amaranthus retroflexus, 312 h, dose 1,000 g/ha, evaluated after 13 days, 100=total damage, 0=no damage
# Outline: as §1
# [7] = system: Alopecurus myosuroides (ALOMY); assay: Pre-emergence biological efficacy (percentage damage); format: in vivo; conditions: Alopecurus myosuroides, 312 h, dose 1,000 g/ha, evaluated after 13 days, 100=total damage, 0=no damage
# Outline: (§2)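 Pre-emergence spray, 250 or 1000 g/ha, acetone/water 50:50 + 0.5% Tween 20, applied 1 d after sowing in standard soil. Glasshouse 24/16 °C, 14 h light, 65% RH, watered twice daily. Scored day 13, 0–100% damage.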
# [8] = system: Ipomea hederaceae (IPOHE); assay: as above; format: in vivo; conditions: Ipomoea hederacea, 312 h, dose 1,000 g/ha, evaluated after 13 days, 100=total damage, 0=no damage
# Outline: as §2
# [9] = system: Echinochloa crus-galli (ECHCG); assay: as above; format: in vivo; conditions: Echinochloa crus-galli, 312 h, dose 1,000 g/ha, evaluated after 13 days, 100=total damage, 0=no damage
# Outline: as §2
# Setaria faberi (SETFA) [10] = assay: as above; format: in vivo; conditions: Setaria faberi, 312 h, dose 1,000 g/ha, evaluated after 13 days, 100=total damage, 0=no damage
# Outline: as §2
# Solanum nigrum (SOLNI) [11] = assay: as above; format: in vivo; conditions: Solanum nigrum, 312 h, dose 1,000 g/ha, evaluated after 13 days, 100=total damage, 0=no damage
# Outline: as §2
# [12] = system: Amaranthus retoflexus (AMARE); assay: as above; format: in vivo; conditions: Amaranthus retroflexus, 312 h, dose 1,000 g/ha, evaluated after 13 days, 100=total damage, 0=no damage
# Outline: as §2
Compound,pest or weed control at 1000 g/ha [1],pest or weed control at 1000 g/ha [2],pest or weed control at 1000 g/ha [3],pest or weed control at 1000 g/ha (Setaria faberi (SETFA) [4]),pest or weed control at 1000 g/ha (Solanum nigrum (SOLNI) [5]),pest or weed control at 1000 g/ha [6],pest or weed control at 1000 g/ha [7],pest or weed control at 1000 g/ha [8],pest or weed control at 1000 g/ha [9],pest or weed control at 1000 g/ha (Setaria faberi (SETFA) [10]),pest or weed control at 1000 g/ha (Solanum nigrum (SOLNI) [11]),pest or weed control at 1000 g/ha [12],melting point
COC(=O)c1nc(C2CC2)nc(N)c1C [Compound 2-41],40%,100%,60%,80%,90%,100%,20%,60%,20%,30%,50%,70%,152 to 153 °C
"C=Cc1c(C(=O)OC)nc(C2CC2)nc1[S+](C)[O-] (centres unmarked) [Compound 2-401, 2-cyclopropyl-5-ethenyl-6-methoxycarbonyl-4-methylsulphinyl-pyrimidine]",0%,70%,0%,0%,80%,70%,0%,70%,0%,0%,10%,70%,74 to 75 °C
"C=Cc1c(OC)nc(-c2ccc(Cl)c(OC)c2F)nc1C(=O)OC [Compound 27-398, 2-(4-chloro-2-fluoro-3-methoxyphenyl)-5-ethenyl-4-methoxy-6-methoxycarbonyl-pyrimidine]",0%,40%,0%,0%,20%,0%,0%,0%,0%,0%,0%,0%,107 to 108 °C
"COC(=O)c1nc(-c2ccc(Cl)c(N(C)C)c2F)nc(N)c1C1CC1 [Compound 33-58, 4-amino-2-(4-chloro-3-dimethylamino-2-fluorophenyl)-5-cyclopropyl-6-methoxycarbonylpyrimidine]",10%,0%,10%,60%,10%,10%,0%,0%,0%,0%,0%,0%,156 to 158 °C
"C=Cc1c(N)nc(-c2ccc(C)cc2)nc1C(=O)OC [Compound 36-61, 4-amino-5-ethenyl-6-methoxycarbonyl-2-(4-methylphenyl)-pyrimidine]",70%,90%,90%,80%,80%,100%,70%,100%,90%,80%,100%,100%,122 to 123 °C
"C=Cc1c(N)nc(-c2ccc(SC)cc2)nc1C(=O)OC [Compound 72-61, 4-Amino-5-ethenyl-6-methoxycarbonyl-2-(4-methylthiophenyl)-pyrimidine]",10%,50%,0%,0%,60%,10%,0%,70%,0%,0%,50%,60%,
"C=Cc1c(N)nc(-c2ccc3ccccc3c2)nc1C(=O)OC [Compound 73-61, 4-Amino-5-ethenyl-6-methoxycarbonyl-2-(2-naphthyl)-pyrimidine]",0%,0%,0%,0%,30%,20%,0%,0%,0%,0%,0%,0%,
